This passage reports IC50 and Reversibility results from ChEMBL document CHEMBL1124815, “Novel piperidine derivatives. Synthesis and anti-acetylcholinesterase activity of 1-benzyl-4-[2-(N-benzoylamino)ethyl]piperidine derivatives” (J Med Chem, 1990).

Molecules are shown by their SMILES. pIC50: −log10 of the molar value.

The target of one experiment is T1, Acetylcholinesterase (Mus musculus, UniProt P21836).
T1 sequence (P21836 whole entry): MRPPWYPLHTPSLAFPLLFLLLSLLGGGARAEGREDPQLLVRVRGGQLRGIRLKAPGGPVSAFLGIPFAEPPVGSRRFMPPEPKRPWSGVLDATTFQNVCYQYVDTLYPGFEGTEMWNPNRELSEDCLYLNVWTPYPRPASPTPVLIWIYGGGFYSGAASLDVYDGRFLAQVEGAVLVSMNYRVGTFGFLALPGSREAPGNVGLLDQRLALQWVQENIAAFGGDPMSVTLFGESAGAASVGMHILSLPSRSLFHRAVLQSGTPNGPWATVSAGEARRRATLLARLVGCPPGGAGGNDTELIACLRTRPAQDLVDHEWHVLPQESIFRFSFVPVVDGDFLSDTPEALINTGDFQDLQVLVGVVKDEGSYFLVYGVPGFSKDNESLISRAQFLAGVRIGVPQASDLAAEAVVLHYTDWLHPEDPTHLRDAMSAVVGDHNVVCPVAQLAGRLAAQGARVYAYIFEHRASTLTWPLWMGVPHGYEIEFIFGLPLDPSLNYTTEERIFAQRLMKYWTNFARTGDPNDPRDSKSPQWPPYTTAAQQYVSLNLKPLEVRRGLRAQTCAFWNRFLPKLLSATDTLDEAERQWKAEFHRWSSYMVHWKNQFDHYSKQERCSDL
The experiment can be described thus: Inhibitory activity against mouse brain Acetylcholinesterase.

The target of the next experiment is Butyrylcholinesterase (Rattus norvegicus, UniProt Q9JKC1). As to the kind of experiment: Inhibitory activity against rat butyrylcholinesterase enzyme (BuChE).
Experiment [1] addresses T2, Acetylcholinesterase (Mus musculus) (UniProt P21836).
T2 sequence (whole entry): T1 sequence (P21836 whole entry)
As to the kind of experiment: Reversibility of Acetylcholinesterase enzyme inhibition by compound (0.91 uM) before dialysis.

For experiment [2], the target named is T2, Acetylcholinesterase (Mus musculus). The experiment can be described thus: Reversibility of Acetylcholinesterase enzyme inhibition by compound (0.27 uM) before dialysis.
For experiment [3] the target is unchanged. As to the kind of experiment: Reversibility of Acetylcholinesterase enzyme inhibition by compound (91 uM) before dialysis.
For experiment [4] the target is unchanged. The experiment can be described thus: Reversibility of Acetylcholinesterase enzyme inhibition by compound (0.27 uM) after dialysis.
For experiment [5] the target is unchanged. The experiment can be described thus: Reversibility of Acetylcholinesterase enzyme inhibition by compound (91 uM) after dialysis.
Experiment [6] shares this target. The experiment can be described thus: Reversibility of Acetylcholinesterase enzyme inhibition by compound (0.91 uM) after dialysis.

Sequence of Butyrylcholinesterase (Q9JKC1 whole entry): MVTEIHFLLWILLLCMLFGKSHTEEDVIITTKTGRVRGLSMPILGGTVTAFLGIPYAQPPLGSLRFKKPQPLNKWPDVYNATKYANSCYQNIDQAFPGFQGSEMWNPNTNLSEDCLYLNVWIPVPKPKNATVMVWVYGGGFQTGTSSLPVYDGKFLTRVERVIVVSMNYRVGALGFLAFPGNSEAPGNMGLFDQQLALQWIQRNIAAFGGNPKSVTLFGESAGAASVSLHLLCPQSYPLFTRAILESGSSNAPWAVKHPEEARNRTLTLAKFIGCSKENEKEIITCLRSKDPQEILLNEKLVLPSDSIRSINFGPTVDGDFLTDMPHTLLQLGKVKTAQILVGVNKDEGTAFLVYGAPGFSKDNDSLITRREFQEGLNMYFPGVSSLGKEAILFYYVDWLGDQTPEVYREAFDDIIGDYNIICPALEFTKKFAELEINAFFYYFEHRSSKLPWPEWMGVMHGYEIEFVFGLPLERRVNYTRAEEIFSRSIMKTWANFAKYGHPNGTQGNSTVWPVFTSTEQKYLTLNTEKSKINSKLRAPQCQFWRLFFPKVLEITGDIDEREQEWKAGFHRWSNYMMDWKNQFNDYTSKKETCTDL

On to `O=C(NCCC1CCN(Cc2ccccc2)CC1)c1ccc(Cl)cc1`, for which the negative logarithm of the IC50 (pIC50) against Acetylcholinesterase was 6.74.
The same measure, in the same setting: as for `COc1ccc(C(=O)NCCC2CCN(Cc3ccccc3)CC2)cc1`, the figure is 7.06.
In turn, `Cc1ccc(C(=O)NCCC2CCN(Cc3ccccc3)CC2)cc1` gave a pIC50 at Acetylcholinesterase of 6.74.
Still for that read-out and setting: as for `O=C(NCCC1CCN(Cc2ccccc2)CC1)c1cc[n+]([O-])cc1`, the figure is 6.81.
Take `O=C(NCCC1CCN(Cc2ccccc2)CC1)c1ccc(S(=O)(=O)Cc2ccccc2)cc1`: the pIC50 at Acetylcholinesterase is 7.54.
Turning to `CC(=O)c1ccc(C(=O)NCCC2CCN(Cc3ccccc3)CC2)cc1`, at Acetylcholinesterase, the pIC50 was 7.29.
In turn, `Cc1ccccc1C(=O)NCCC1CCN(Cc2ccccc2)CC1` showed a negative logarithm of the IC50 (pIC50) at Acetylcholinesterase of 6.00.
On Acetylcholinesterase, `O=C(NCCC1CCN(Cc2ccccc2)CC1)c1ccccc1[N+](=O)[O-]` gave a negative-log IC50 (pIC50) of 6.06.
In turn, `O=C(CCCC1CCN(Cc2ccccc2)CC1)c1ccccc1` had a pIC50 at Acetylcholinesterase of 6.28.
Consider `O=C(c1ccccc1)N(CCC1CCN(Cc2ccccc2)CC1)c1ccccc1`, for which, at Acetylcholinesterase, the pIC50 was 7.46.
Turning to `O=C(NCCC1CCN(Cc2ccccc2)CC1)c1cccnc1`, at Acetylcholinesterase, the negative logarithm of the IC50 (pIC50) is 7.16.
`O=C(NCCC1CCN(Cc2ccccc2)CC1)C1CCCCC1` gave a pIC50 on Acetylcholinesterase of 5.80.
As for `O=C(NCCC1CCN(Cc2ccccc2)CC1)c1ccncc1`, the negative logarithm of the IC50 (pIC50) on Acetylcholinesterase is 7.41.
Regarding `CN(CCC1CCN(Cc2ccccc2)CC1)C(=O)c1ccc(S(=O)(=O)Cc2ccccc2)cc1`, on Butyrylcholinesterase, the negative-log IC50 (pIC50) is 5.00. In addition, the Reversibility turned out to be 5.42 in experiment [1]; 9.1 in experiment [2]; 2.59 in experiment [3]; 17.7 in experiment [4]; 16.5 in experiment [5]; 17.8 in experiment [6].
Turning to `CCN(CCC1CCN(Cc2ccccc2)CC1)C(=O)c1ccccc1`, at Acetylcholinesterase, the pIC50 is 6.89.
The same measure, in the same setting: as for `O=Cc1ccc(C(=O)NCCC2CCN(Cc3ccccc3)CC2)cc1`, the figure is 6.92.
In the case of `O=C(c1ccc(S(=O)(=O)Cc2ccccc2)cc1)N(CCC1CCN(Cc2ccccc2)CC1)c1ccccc1`, the negative-log IC50 (pIC50) at Acetylcholinesterase is 9.22.
Still for that read-out and setting: as for `O=C(c1ccccc1)N(CCC1CCN(Cc2ccccc2)CC1)Cc1ccccc1`, the figure is 6.03; as for `c1ccc(CNCCC2CCN(Cc3ccccc3)CC2)cc1`, 4.34; as for `CCN(CCC1CCN(Cc2ccccc2)CC1)C(=O)c1ccc(S(=O)(=O)Cc2ccccc2)cc1`, 9.52.
For `O=C(NCCC1CCN(Cc2ccccc2)CC1)c1ccccn1`, the negative-log IC50 (pIC50) against Acetylcholinesterase was 6.10.
In the case of `O=C(NCCC1CCN(Cc2ccccc2)CC1)c1cccc([N+](=O)[O-])c1`, the pIC50 against Acetylcholinesterase was 6.64.
`Cc1cccc(C(=O)NCCC2CCN(Cc3ccccc3)CC2)c1`: the negative logarithm of the IC50 (pIC50) against Acetylcholinesterase was 6.33.
On the same count and under the same terms, as for `O=C(NCCC1CCN(Cc2ccccc2)CC1)c1ccc(F)cc1`, the figure is 7.07.

In general, pIC50 refers to the negative decadic logarithm of the IC50, by convention in mol/L.
